{"source": "patent US5750516A", "about": "“Phosphoric diester” (Senju Pharmaceutical Co., Ltd., priority 1995, dated 1998)", "key": {"[1]": {"test_system": "lipid peroxidation in rat brain homogenate", "experiment": "Autooxidation (lipid peroxidation) of the rat brain homogenate, MDA by TBA method", "assay_type": "biochemical, Rats of Wistar strain", "settings": "for Inhibition (%) of lipid peroxidation in rat brain homogenate: 37° C., 30 minutes, pH 7.4", "description": "Rats of Wistar strain (male, 11 weeks old) were used. The animal was decapitated and the brain was enucleated and homogenized in 4 ml/gram of 50 mM phosphate-buffered saline (pH 7.4). The homogenate was centrifuged (1000 g, 10 min.) and the supernatant was harvested. The test solution was set to 10^-7 -10^-4 M (dissolved at a final ethanol concentration of 1%). To 100 μl of the test solution was added 200 μl of the brain homogenate as well as 700 μl of phosphate-buffered saline and the mixture was incubated at 37° C. for 30 minutes for lipid peroxidation. The reaction was stopped with 200 μl of 35% perchloric acid and centrifuged (1300 g, 10 min.) and the MDA (malondialdehyde) value of the supernatant was determined by the TBA (thiobarbituric acid) method."}, "[2]": {"experiment": "DPPH (1,1-Diphenyl-2-picrylhydrazyl) radical scavenging action", "assay_type": "biochemical", "settings": "for Inhibition (%) (scavenging effect on DPPH radical): 20 minutes, 517 nm", "description": "To 2.7 ml of 0.11 mM-DPPH/ethanol was added 300 μl of the test solution and the mixture was stirred and allowed to stand for 20 minutes. Then, the absorbance was measured at 517 nm. The radical scavenging effect (%) of each test solution was calculated by means of the following equation. [formula]"}}, "data": [{"smiles": "Cc1c(C)c2c(c(C)c1OP(=O)([O-])O[C@@H](CO)[C@H]1OC(=O)C(O)=C1O)CCC(C)(CCCC(C)CCCC(C)CCCC(C)C)O2.[K+]", "note": "(stereo partly drawn) [the present compound, L-ascorbic acid 5-[3,4-dihydro-2,5,7,8-tetramethyl-2-(4,8,12-trimethyltridecyl)-2H-1-benzopyran-6-yl hydrogen phosphate] potassium]", "values": [{"measurement": "Inhibition (%) of lipid peroxidation in rat brain homogenate", "setting": "[1]; 10^-4 M", "result": 98.5, "unit": "%"}, {"measurement": "Inhibition (%) of lipid peroxidation in rat brain homogenate", "setting": "[1]; 10^-5 M", "result": 98.7, "unit": "%"}, {"measurement": "Inhibition (%) of lipid peroxidation in rat brain homogenate", "setting": "[1]; 10^-6 M", "result": 93.3, "unit": "%"}, {"measurement": "inhibition of autooxidation of the rat brain homogenate (in words)", "setting": "[1]; 10^-7 -10^-4 M", "result": "inhibits autooxidation of the rat brain homogenate to a remarkable extent"}, {"measurement": "Inhibition (%) of lipid peroxidation in rat brain homogenate", "setting": "[1]; 10^-7 M", "result": 24.7, "unit": "%"}, {"measurement": "Inhibition (%) (scavenging effect on DPPH radical)", "setting": "[2]; 5 × 10^-5 M", "result": 71.7, "unit": "%"}, {"measurement": "Inhibition (%) (scavenging effect on DPPH radical)", "setting": "[2]; 10^-3 M", "result": 96.7, "unit": "%"}, {"measurement": "Inhibition (%) (scavenging effect on DPPH radical)", "setting": "[2]; 10^-4 M", "result": 97.3, "unit": "%"}, {"measurement": "Inhibition (%) (scavenging effect on DPPH radical)", "setting": "[2]; 10^-5 M", "result": 13.1, "unit": "%"}, {"measurement": "scavenging of DPPH radicals (in words)", "setting": "[2]; 10^-5 to 10^-3 M", "result": "scavenges DPPH radicals to a remarkable extent"}]}]}
